The assay relates to P388 leukemia ip, CD2F1 mice, survival T/C. As to the kind of experiment: NCI In Vivo Anticancer Drug Screen. Data for tumor model P388 Leukemia (intraperitoneal) in CD2F1 (CDF1) mice. To be noted: endpoint: median survival time, higher = longer survival. Summed up:
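Mice carrying the transplanted tumor received test compound or vehicle. Survival was recorded in each group, and the value is the treated-group measurement divided by that of the vehicle-treated control group.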

Setting [1] is: dose: 50.0 mg/kg/injection, schedule: Q01DX009 (ip), vehicle: Klucel (hydroxypropylcellulose) (HPC).
Setting [2] is: dose: 100.0 mg/kg/injection, schedule: Q01DX009 (ip), vehicle: Klucel (hydroxypropylcellulose) (HPC).
[3] abbreviates: dose: 200.0 mg/kg/injection, schedule: Q01DX009 (ip), vehicle: Klucel (hydroxypropylcellulose) (HPC).
Setting [4] is: dose: 50.0 mg/kg/injection, schedule: Q01DX005 (ip), vehicle: saline with Tween-80.
Where [5] appears, read: dose: 100.0 mg/kg/injection, schedule: Q01DX005 (ip), vehicle: saline with Tween-80.
The mark [6] stands for this setting: dose: 200.0 mg/kg/injection, schedule: Q01DX005 (ip), vehicle: saline with Tween-80.

Consider 16 compounds from PubChem BioAssay AID330 (DTP/NCI, 2004).

“And” between values parts separate entries of the source, which are not always exact repeats. Identical values can stand only once. Toxic doses and inconclusive results are not listed.

In the case of `CCOc1ccc(C(C)c2cc3c(cc2OC)OCO3)cc1` (stereo not drawn), the T/C is 102 % of control (dose: 15.0 mg/kg/injection, schedule: Q01DX005 (ip), vehicle: distilled water + Tween-80); 100 % of control and 105 % of control (2×) (dose: 25.0 mg/kg/injection, schedule: Q01DX005 (ip), vehicle: distilled water + Tween-80); 118 % of control (dose: 31.0 mg/kg/injection, schedule: Q01DX005 (ip), vehicle: distilled water + Tween-80); 124 % of control (dose: 62.5 mg/kg/injection, schedule: Q01DX005 (ip), vehicle: distilled water + Tween-80); 118 % of control and 119 % of control (dose: 72.0 mg/kg/injection, schedule: Q01DX005 (ip), vehicle: distilled water + Tween-80); 112 % of control and 120 % of control (dose: 120.0 mg/kg/injection, schedule: Q01DX005 (ip), vehicle: distilled water + Tween-80). Also, the T/C (dose: 125.0 mg/kg/injection, schedule: Q01DX005 (ip), vehicle: distilled water + Tween-80) is 154 % of control.
For `NC(=O)CCCCO`, the T/C by setting is: (dose: 100.0 mg/kg/injection, schedule: Q04DX003 (ip), vehicle: saline) 102 % of control; (dose: 200.0 mg/kg/injection, schedule: Q04DX003 (ip), vehicle: saline) 102 % of control; (dose: 400.0 mg/kg/injection, schedule: Q04DX003 (ip), vehicle: saline) 109 % of control.
Take `O=C1Sc2ccccc2C(=O)N2CCCC12` (stereo not drawn): the T/C runs as follows: (dose: 60.0 mg/kg/injection, schedule: Q01DX005 (ip), vehicle: saline with Tween-80) 97 % of control; (dose: 120.0 mg/kg/injection, schedule: Q01DX005 (ip), vehicle: saline with Tween-80) 99 % of control; (dose: 240.0 mg/kg/injection, schedule: Q01DX005 (ip), vehicle: saline with Tween-80) 100 % of control.
Consider `COc1cc(/C=C2\N=C(C)OC2=O)ccc1O`, for which the T/C is, setting by setting: (dose: 50.0 mg/kg/injection, schedule: Q01DX005 (ip), vehicle: Klucel (hydroxypropylcellulose) (HPC)) 106 % of control; (dose: 100.0 mg/kg/injection, schedule: Q01DX005 (ip), vehicle: Klucel (hydroxypropylcellulose) (HPC)) 101 % of control; (dose: 200.0 mg/kg/injection, schedule: Q01DX005 (ip), vehicle: Klucel (hydroxypropylcellulose) (HPC)) 104 % of control.
For `CNC(=O)OCc1c(C)oc(-c2ccccc2)c1COC(=O)NC`, the T/C is 93 % of control (dose: 12.5 mg/kg/injection, schedule: Q01DX009 (ip), vehicle: distilled water + Tween-80); 90 % of control (dose: 25.0 mg/kg/injection, schedule: Q01DX009 (ip), vehicle: distilled water + Tween-80); 100 % of control (dose: 50.0 mg/kg/injection, schedule: Q01DX009 (ip), vehicle: distilled water + Tween-80).
Regarding `CN1CC[C@]23c4c5ccc(O)c4O[C@H]2C(=O)CC[C@H]3[C@H]1C5`, the T/C (dose: 12.5 mg/kg/injection, schedule: Q01DX005 (iv), vehicle: saline) is 99 % of control and 102 % of control; the T/C (dose: 12.5 mg/kg/injection, schedule: Q01DX009 (ip), vehicle: saline) was 108 % of control; the T/C (dose: 25.0 mg/kg/injection, schedule: Q01DX005 (iv), vehicle: saline) was 102 % of control and 106 % of control; the T/C (dose: 25.0 mg/kg/injection, schedule: Q01DX009 (ip), vehicle: saline) was 111 % of control; the T/C (dose: 50.0 mg/kg/injection, schedule: Q01DX005 (iv), vehicle: saline) was 99 % of control and 102 % of control; the T/C (dose: 50.0 mg/kg/injection, schedule: Q01DX009 (ip), vehicle: saline) is 103 % of control and 97 % of control. The T/C is 101 % of control (dose: 100.0 mg/kg/injection, schedule: Q01DX005 (iv), vehicle: saline) and 102 % of control (dose: 200.0 mg/kg/injection, schedule: Q01DX005 (iv), vehicle: saline).
Turning to `c1ccc(N=C2SCCCS2)cc1`, the T/C runs as follows: under setting [1], 103 % of control; under setting [2], 97 % of control; under setting [3], 105 % of control.
`CCOc1ccc2nc3cc(N=Nc4cc5ccccc5[nH]4)ccc3c(N)c2c1`: the T/C reads like this: (dose: 100.0 mg/kg/injection, schedule: Q01DX001 (ip), vehicle: saline with Tween-80) 97 % of control; (dose: 200.0 mg/kg/injection, schedule: Q01DX001 (ip), vehicle: saline with Tween-80) 94 % of control; (dose: 400.0 mg/kg/injection, schedule: Q01DX001 (ip), vehicle: saline with Tween-80) 103 % of control.
Consider `[N-]=[N+]=CC(=O)C1OC12C1CC3CC(C1)CC2C3` (stereo not drawn), for which the T/C is 86 % of control (dose: 25.0 mg/kg/injection, schedule: Q01DX005 (ip), vehicle: saline with Tween-80); 105 % of control under setting [4]; 113 % of control under setting [5]; 113 % of control under setting [6].
As to `CSc1nc(N)cc(C(F)(F)F)n1`, the T/C is 88 % of control under setting [4], 99 % of control under setting [5] and 97 % of control under setting [6].
For `O=c1nc(-c2ccco2)sc(=O)[nH]1`, the T/C runs as follows: (dose: 25.0 mg/kg/injection, schedule: Q01DX009 (ip), vehicle: Klucel (hydroxypropylcellulose) (HPC)) 109 % of control; under setting [1], 106 % of control and 117 % of control; under setting [2], 113 % of control; under setting [3], 105 % of control and 121 % of control.
In the case of `CCCCCCCC(=O)OC(C)C1/C=C/C=C\C(=O)O[C@@H]2C[C@H]3OC4C5OC5(C)CCC4(COC(=O)C4O[C@@]4(C)C(OC(=O)CCCCCCC)CO1)[C@]2(C)[C@]31CO1` (stereo partly drawn), the T/C by setting is: (dose: 1.25 mg/kg/injection, schedule: Q01DX009 (ip), vehicle: Klucel (hydroxypropylcellulose) (HPC)) 102 % of control; (dose: 2.5 mg/kg/injection, schedule: Q01DX009 (ip), vehicle: Klucel (hydroxypropylcellulose) (HPC)) 106 % of control; (dose: 5.0 mg/kg/injection, schedule: Q01DX009 (ip), vehicle: Klucel (hydroxypropylcellulose) (HPC)) 99 % of control and 106 % of control; (dose: 10.0 mg/kg/injection, schedule: Q01DX009 (ip), vehicle: Klucel (hydroxypropylcellulose) (HPC)) 98 % of control and 101 % of control; (dose: 20.0 mg/kg/injection, schedule: Q01DX009 (ip), vehicle: Klucel (hydroxypropylcellulose) (HPC)) 110 % of control; (dose: 40.0 mg/kg/injection, schedule: Q01DX005 (ip), vehicle: Klucel (hydroxypropylcellulose) (HPC)) 90 % of control. Also, the T/C (dose: 40.0 mg/kg/injection, schedule: Q01DX009 (ip), vehicle: Klucel (hydroxypropylcellulose) (HPC)) is 99 % of control; the T/C (dose: 80.0 mg/kg/injection, schedule: Q01DX005 (ip), vehicle: Klucel (hydroxypropylcellulose) (HPC)) is 90 % of control; the T/C (dose: 150.0 mg/kg/injection, schedule: Q01DX005 (ip), vehicle: Klucel (hydroxypropylcellulose) (HPC)) is 91 % of control; the T/C (dose: 160.0 mg/kg/injection, schedule: Q01DX005 (ip), vehicle: Klucel (hydroxypropylcellulose) (HPC)) is 108 % of control; the T/C (dose: 300.0 mg/kg/injection, schedule: Q01DX005 (ip), vehicle: Klucel (hydroxypropylcellulose) (HPC)) was 100 % of control.
Turning to `N#C/C(N)=C(\C#N)N=Cc1ccc(N(CCCl)CCCl)cc1`, the T/C under setting [4] is 100 % of control, the T/C under setting [5] is 104 % of control and the T/C under setting [6] was 92 % of control.
Take `O=C1C2=C(Nc3ccccc3N2)OC1c1ccncc1` (stereo not drawn): the T/C is 93 % of control (dose: 60.0 mg/kg/injection, schedule: Q01DX005 (ip), vehicle: Klucel (hydroxypropylcellulose) (HPC)); 93 % of control (dose: 120.0 mg/kg/injection, schedule: Q01DX005 (ip), vehicle: Klucel (hydroxypropylcellulose) (HPC)); 88 % of control (dose: 240.0 mg/kg/injection, schedule: Q01DX005 (ip), vehicle: Klucel (hydroxypropylcellulose) (HPC)).
Take `Cn1c(=O)c2[nH]c(Cl)nc2n(CCCl)c1=O`: the T/C by setting is: (dose: 12.5 mg/kg/injection, schedule: Q01DX009 (ip), vehicle: saline with Tween-80) 100 % of control and 88 % of control; (dose: 25.0 mg/kg/injection, schedule: Q01DX009 (ip), vehicle: saline with Tween-80) 89 % of control and 98 % of control; (dose: 50.0 mg/kg/injection, schedule: Q01DX009 (ip), vehicle: saline with Tween-80) 102 % of control and 95 % of control; (dose: 100.0 mg/kg/injection, schedule: Q01DX009 (ip), vehicle: saline with Tween-80) 104 % of control and 109 % of control.
As to `Cn1ccc2cc(C3CCCc4c3[nH]c3ccccc43)c(OCc3ccccc3)cc21` (stereo not drawn), the T/C is 99 % of control (dose: 6.25 mg/kg/injection, schedule: Q01DX005 (ip), vehicle: Klucel (hydroxypropylcellulose) (HPC)); 97 % of control (dose: 12.5 mg/kg/injection, schedule: Q01DX005 (ip), vehicle: Klucel (hydroxypropylcellulose) (HPC)); 97 % of control (dose: 25.0 mg/kg/injection, schedule: Q01DX005 (ip), vehicle: Klucel (hydroxypropylcellulose) (HPC)).
